Reference: US20040214221A1, “High density labeling of DNA with modified or "chromophore" carrying nucleotides and DNA polymerases used” (priority 1999, published 2004)
Like-named read-outs stand apart in the source and are kept apart here.

Tests used:
Tgo exo^− polymerase = format: biochemical, Thermococcus species
Vent exo^− polymerase = Vent exo^− polymerase (Thermococcus litoralis, UniProt P30317, D141A/DEL1082-1471/DEL495-1032/E143A); experiment: Primer extension with modified dNTPs, Vent exo- polymerase; format: biochemical, Thermococcus species; settings: template NucT15 (18 possible)
Sequence of Vent exo^− polymerase (P30317 with tags, fused parts or gaps D141A/DEL1082-1471/DEL495-1032/E143A): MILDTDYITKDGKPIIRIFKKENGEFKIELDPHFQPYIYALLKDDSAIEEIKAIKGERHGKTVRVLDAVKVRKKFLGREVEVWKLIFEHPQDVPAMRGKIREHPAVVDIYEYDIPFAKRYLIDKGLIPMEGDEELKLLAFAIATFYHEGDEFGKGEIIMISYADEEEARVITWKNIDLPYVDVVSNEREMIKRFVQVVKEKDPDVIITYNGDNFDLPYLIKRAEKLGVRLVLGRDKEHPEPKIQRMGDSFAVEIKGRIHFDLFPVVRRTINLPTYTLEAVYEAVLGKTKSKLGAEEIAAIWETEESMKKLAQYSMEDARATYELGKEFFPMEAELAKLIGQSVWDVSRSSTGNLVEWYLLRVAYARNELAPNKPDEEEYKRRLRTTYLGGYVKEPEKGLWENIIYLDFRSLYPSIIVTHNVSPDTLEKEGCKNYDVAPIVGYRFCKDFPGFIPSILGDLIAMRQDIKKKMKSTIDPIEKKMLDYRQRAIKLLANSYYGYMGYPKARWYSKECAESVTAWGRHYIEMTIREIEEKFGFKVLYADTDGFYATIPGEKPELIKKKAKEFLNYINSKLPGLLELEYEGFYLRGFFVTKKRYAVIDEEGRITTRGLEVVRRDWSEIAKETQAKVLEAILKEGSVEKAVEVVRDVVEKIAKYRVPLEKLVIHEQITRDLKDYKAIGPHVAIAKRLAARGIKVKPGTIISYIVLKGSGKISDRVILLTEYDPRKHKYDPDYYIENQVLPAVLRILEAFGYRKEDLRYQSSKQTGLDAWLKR

[1] = test system: Klenow-fragment of Chy DNA pol I; experiment: Primer extension with modified dNTPs, Chy Klenow polymerase; format: biochemical, Carboxydothermus hydrogenoformans; settings: template NucT15

Rhodamin-green-5(6)-carboxyamido-[5-(3-aminoallyl)-2′desoxy-uridin-5′-triphosphate] [Rhodamine-green-dUTP]
insertions in neighbouring positions (Tgo exo^− polymerase): 15-16

TMR-6-dUTP [TM-Rhodamine-dUTP]
positions inserted (Vent exo^− polymerase): 14

CCCCC#Cc1cn([C@H]2C[C@H](O)[C@@H](COP(=O)(O)OP(=O)(O)OP(=O)(O)O)O2)c2nc(N)[nH]c(=O)c12 [Hex^7c^7Gd, 7-Hexinyl-7-desaza-dGTP]
consecutive incorporations (Tgo exo^− polymerase): five | subsequent positions polymerized (Tgo exo^− polymerase): up to 21

Cy5-10-dUTP
positions inserted (Vent exo^− polymerase): 13

Fluorescein-12-dUTP
elongation of Hex7c7Gd stretch with dUTP derivative (Tgo exo^− polymerase; template NucT3, 50 μM each, 0,1 and 1 unit polymerase): complete elongation | product at lower polymerase concentration (Tgo exo^− polymerase; template NucT15, 0,1 unit/reaction): full length products were detectable

CCCCC#Cc1cn([C@H]2C[C@H](O)[C@@H](COP(=O)(O)OP(=O)(O)OP(=O)(O)O)O2)c2ncnc(N)c12 [Hex^7c^7Ad, 7-Hexinyl-7-Desaza-dATP]
adjacent positions into which derivative was incorporated (Tgo exo^− polymerase): 15

Rhodamin-green-5(6)-carboxyamido-ε-aminocaproyl-[5-(3-aminoallyl)-2′desoxy-uridin-5′-triphosphate] [Rhodamine-green-X-dUTP]
insertions in neighbouring positions (Tgo exo^− polymerase): up to 18 | major products (number of insertions) (Tgo exo^− polymerase): 13-17 | substrate activity / incorporation (Tgo exo^− polymerase): very good substrate for the polymerase

O=C(CCCCCNC(=O)CCCNC(=O)CCCC[C@@H]1SC[C@@H]2NC(=O)N[C@@H]21)NC/C=C/c1cn([C@H]2C[C@H](O)[C@@H](COP(=O)(O)OP(=O)(O)OP(=O)(O)O)O2)c(=O)[nH]c1=O [Biotin-16-dUTP]
elongation of Hex7c7Gd stretch with dUTP derivative (Tgo exo^− polymerase): a high molecular weight product is formed | insertions in neighbouring positions (Tgo exo^− polymerase): 18 | product at lower polymerase concentration (Tgo exo^− polymerase): full length products were detectable

DIG-11-dUTP
product at lower polymerase concentration (Tgo exo^− polymerase): full length products were detectable | substrate activity / incorporation (Tgo exo^− polymerase): high substrate activity

Cc1c(CC(=O)NCCCCCC(=O)NC/C=C/c2cn([C@H]3C[C@H](O)[C@@H](COP(=O)(O)OP(=O)(O)OP(=O)(O)O)O3)c(=O)[nH]c2=O)c(=O)oc2cc(N)ccc12 [AMCA-6-dUTP]
elongation of Hex7c7Gd stretch with dUTP derivative (Tgo exo^− polymerase): complete elongation | substrate activity [1]: high substrate activity
